# Experimental data from patent EP0888293B1, “N-ACYLAMINOALKYLHYDRAZINECARBOXIMIDAMIDES” (ALTEON Inc., priority 1995, dated 1997).
# Structures can show the parent of a compound that is named as a salt.
# Tests used:
# [1] = tested on: N-acetyl glycyl-lysine methyl ester; assay: Inhibition of cross-linking of N-acetyl glycyl-lysine methyl ester in the presence of ribose (fluorescence); format: biochemical; details: N-acetylglycyllysine methyl ester + ribose, pH 7.4, 37°C, 16-24 hours, fluorescence 350/400 nm
# Experimental: The following method was used to evaluate the ability of the compounds of the present invention to inhibit the cross-linking of N-acetyl glycyl-lysine methyl ester in the presence of ribose.
# • 0.5 M sodium phosphate buffer pH 7.4 • N-acetylglycyllysine methyl ester in 0.5M sodium phosphate buffer, pH 7.4 • Ribose: 800 mM • Test compounds dissolved in the above buffer and the pH is adjusted to 7.4, if necessary
# Reaction mixtures are prepared as follows:
# and incubated at 37°C for 16-24 hours. At the end of the incubation period, the fluorescence is read using an excitation wavelength of 350 nm and emission wavelength of 400 nm.
# [2] = target: T1, inducible nitric oxide synthase (Mus musculus, UniProt P29477); assay: Nitric oxide production by lipopolysaccharide-induced macrophage cells; format: cell-based; details: RAW 264.7 macrophage cells induced with lipopolysaccharide; test concentration not given
# T1 construct: Nitric oxide (NO) production by macrophage cells (RAW 264.7) is induced with lipopolysaccharride; endogenous in cells; host or cells: RAW 264.7 macrophage cells, LPS-induced
# [3] = tested on: fixed protein (gelatin, i.e., collagen) surface; assay: Surface browning experiment on gelatin/paper disks; details: 100 mM glucose-6-phosphate, one week at 50°C, pH 7.4; Peridex at final concentration of 0.04% chlorhexidine, no compound of Formula I
# Experimental: To further study the ability of inhibitors of nonenzymatic browning to prevent the discoloration of protein on a surface, such as that which occurs on the tooth surface, the following surface browning experiment is performed. As a substitute for a pellicle-covered tooth surface, unexposed and developed photographic paper is used to provide a fixed protein (gelatin, i.e., collagen) surface on a paper backing. Five millimeter circles are punched and immersed for one week at 50°C in a solution of 100 mM glucose-6-phosphate in a 0.5 M phosphate buffer, pH 7.4, containing 3 mM sodium azide. Glucose-6-phosphate is a sugar capable of participating in nonenzymatic browning at a more rapid rate than glucose. In addition to the glucose-6-phosphate, chlorhexidine and/or a compound of Formula I are included. After incubation, the gelatin/paper disks are rinsed with water, observed for brown color, and photographed.
% inhibition of NO release [2],IC50 ([1]; hydrobromide),IC50 ([1]; hydrochloride),SMILES,IC50 [1],browning of gelatin/paper disks [3]
20%,11.5 mM,–,Br.CC(=O)NCCNC(=N)NN [N-(2-acetamidoethyl)hydrazine carboximidamide hydrobromide],–,–
15%,–,10.6 mM,CC(=O)NCCNC(=N)NN.Cl [N-(2-acetamidoethyl)hydrazine carboximidamide hydrochloride],–,–
33%,–,–,CC(=O)NCCCNC(=N)NN [N-(3-acetamidopropyl)hydrazinecarboximidamide],> 10 mM,–

# More lines, now with the values behind:
SMILES,% inhibition of NO release [2],IC50 ([1]; hydrobromide),IC50 ([1]; hydrochloride),IC50 [1],browning of gelatin/paper disks [3]
"N=C(N)NN [Aminoguanidine hydrochloride, reference compound]",44%,–,–,10 mM,–
[H]/N=C(\N/C(=N/[H])NCCCCCCNC(=N)NC(=N)Nc1ccc(Cl)cc1)Nc1ccc(Cl)cc1 [chlorhexidine],–,–,–,–,significant browning
